Values after ≈ are worked out from the molar mass of the structure shown.
What was measured:
[1] = test system: ANKA strain of P. berghei; assay: single dose STI in vivo screen in infected mice; set-up: species or system Plasmodium berghei; conditions: for Activity (%) po / Activity (%) sc / Activity (%) SSVpo: percent reduction in parasitemia day 3 post-infection, mice; for Activity (%) po / Survival (days) po: single 10 mg/kg po in 3% ethanol and 7% Tween 80; for Activity (%) sc / Survival (days) sc: single 10 mg/kg sc in 3% ethanol and 7% Tween 80; for Activity (%) SSVpo: single po dose in standard suspending vehicle (SSV); for Survival (days) po / Survival (days) sc / Survival (days) SSVpo: untreated control 5.6 ± 0.3; for Survival (days) SSVpo: single po dose in SSV
Procedure, shortened: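 Groups of 3-5 Moro SPF or NMRI mice infected with the ANKA strain of P. berghei received a single dose of trioxolane on day one post-infection. The compound was given in 3% ethanol and 7% Tween 80 or in SSV (0.5% w/v CMC, 0.5% v/v benzyl alcohol, 0.4% v/v Tween 80, 0.9% w/v sodium chloride in water). Antimalarial activity was scored as percent reduction in parasitemia on day three and as survival time versus untreated controls. Survival to day 30 counted as cure.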

[2] = test system: Schistosoma mansoni 21-day-old schistosomules; assay: effect on 21-day-old schistosomules in mice; assay type: in vivo; conditions: single 200 mg/kg per os, female mice
Experimental: All groups were killed 4 weeks after treatment and the liver and intestine were removed and separated. The liver and intestine were compressed and alive male and female worms could be seen and counted. The effect of the compounds was evaluated by mean total and female worm burden.

[3] = test system: Schistosoma mansoni adult schistosomes (49-day-old); assay: effect on adult schistosomes (49-day-old) in mice; assay type: in vivo; conditions: for % reduction of adult worms growth at day 49 after per os application of 400 mg/kg, TWR (%) / adult worms at day 49, per os 400 mg/kg, DEAD WORM (%): single 400 mg/kg per os
Experimental: Mice were infected with 100 Schistosoma mansoni cercariae […]. Each group was treated per os with OZ compounds at single doses of 200, 400, and 600 mg/kg. […] All groups were killed 4 weeks after treatment and the liver and intestine were removed and separated. The liver and intestine were compressed and alive male and female worms could be seen and counted.

[4] = test system: P. falciparum K1 strain (Thailand resistant to chloroquine); assay: semiautomated microdilution assay, [3H]-hypoxanthine incorporation, K1 strain; assay type: cell-based, Plasmodium falciparum; conditions: K1 strain, 72 h incubation
Procedure, shortened: (§1)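 IC50 values come from logit regression of semiautomated microdilution data obtained on intraerythrocytic parasites drawn from asynchronous cultures.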

[5] = test system: P. falciparum NF54 strain (sensitive to standard antimalarials); assay: semiautomated microdilution assay, [3H]-hypoxanthine incorporation, NF54 strain; assay type: cell-based, Plasmodium falciparum; conditions: NF54 strain, 72 h incubation
Procedure, shortened: as §1

Row | SMILES | Activity (%) po [1] | Activity (%) sc [1] | Activity (%) SSVpo [1] | Survival (days) po [1] | Survival (days) sc [1] | Survival (days) SSVpo [1] | % reduction of schistosomule growth at day 21 after per os application of 200 mg/kg, FWR (%) [2] | % reduction of schistosomule growth at day 21 after per os application of 200 mg/kg, TWR (%) [2] | % reduction of adult worms growth at day 49 after per os application of 400 mg/kg, TWR (%) [3] | adult worms at day 49, per os 400 mg/kg, DEAD WORM (%) [3] | IC50 (ng/ml) K1 [4] | IC50 (ng/ml) NF54 [5] | Activity (%) po ([1]; 10 mg/kg) | Activity (%) sc ([1]; 10 mg/kg) | Survival (days) po ([1]; 10 mg/kg) | Survival (days) sc ([1]; 10 mg/kg) | adult worms at day 49, per os 600 mg/kg, DEAD WORM (%) ([3]; single 600 mg/kg per os)
1 | c1ccc2c(c1)COC1(CCC3(CC1)OOC1(O3)C3CC4CC(C3)CC1C4)OC2 (stereo not shown) [OZ31] | 99.95% | 99.95% | 90% | 9.0 days | 17.7 days | 7.3 days | 63% | 60% | 4/4% | 4/4% |  |  |  |  |  |  | 
2 | O=C1CC2CC3(CC2C1)OOC1(O3)C2CC3CC(C2)CC1C3 (stereo not shown) [OZ12] | 75% | 99.8% |  | 7.0 days | 9.3 days |  | 79% | 78% | 14% | 0% |  |  |  |  |  |  | 
3 | c1cn(C[C@H]2CC[C@]3(CC2)OOC2(O3)C3CC4CC(C3)CC2C4)cn1 (stereo partly shown) [OZ145] |  |  | 99.21% |  |  | 10.7 days | 83% | 80% |  |  | 0.50 ng/mL (≈ 1.45 nM) | 0.76 ng/mL (≈ 2.21 nM) | 99.82% | 99.87% | 8.3 days | 10.7 days | 
4 | OC12CC3CC(C1)C1(OOC4(CCC5(CC4)OCCO5)O1)C(C3)C2 (stereo not shown) [OZ152] |  |  | 12% | 6.3 days |  | 6.7 days | 11% | 19% |  |  | 3.2 ng/mL (≈ 9.46 nM) | 7.2 ng/mL (≈ 21.3 nM) | 0% | 22% |  | 6.7 days | 
5 | CS(=O)(=O)N1CCC2(CC1)OOC1(O2)C2CC3CC(C2)CC1C3 (stereo not shown) [OZ56] | 93% | 99.97% | 63% | 6.7 days | 10.3 days | 5.7 days | 66% | 69% |  |  | 0.59 ng/mL (≈ 1.72 nM) | 0.64 ng/mL (≈ 1.86 nM) |  |  |  |  | 
6 | c1ccc(CNC2CCC3(CC2)OOC2(O3)C3CC4CC(C3)CC2C4)cc1 (stereo not shown) [OZ160] | 45% | 99.94% | 43% | 6.3 days | 12.0 days | 6.7 days | 0% | 15% |  |  | 0.70 ng/mL (≈ 1.89 nM) | 0.87 ng/mL (≈ 2.35 nM) |  |  |  |  | 
7 | ON=C1CCC2(CC1)OOC1(O2)C2CC3CC(C2)CC1C3 (stereo not shown) [OZ16] | 79% | 99.2% | 83% | 6.7 days | 7.3 days | 6.7 days | 77% | 78% |  |  | 0.45 ng/mL (≈ 1.53 nM) | 0.67 ng/mL (≈ 2.28 nM) |  |  |  |  | 
8 | O=C(C1CCCCC1)N1CC(=O)N2CCc3ccccc3C2C1 (stereo not shown) [PRAZIQUANTEL, praziquantel, reference compound] |  |  |  |  |  |  | 0% | 0% | 96/96% | 96/96% |  |  |  |  |  |  | 100/100%
9 | CN1CCN(C(=O)N2CCC3(CC2)OOC2(O3)C3CC4CC(C3)CC2C4)CC1 (stereo not shown) [OZ157] | 90% | 97% | 80% | 7.3 days | 8.3 days | 8.3 days | 68% | 65% |  |  | 0.20 ng/mL (≈ 0.511 nM) | 0.22 ng/mL (≈ 0.562 nM) |  |  |  |  | 
10 | CC1(C)CCC2(CC1)OOC1(O2)C2CC3CC(C2)CC1C3 (stereo not shown) [OZ33] | 80% | 99.97% |  | 6.7 days | 11.7 days |  | 14% | 28% |  |  | 2.3 ng/mL (≈ 7.87 nM) | 3.5 ng/mL (≈ 12 nM) |  |  |  |  | 
11 | C1CC2(CCO1)OOC1(O2)C2CC3CC(C2)CC1C3 (stereo not shown) [OZ22] | 35% | 99.6% |  | 6.0 days | 7.7 days |  | 76% | 75% |  |  | 0.32 ng/mL (≈ 1.2 nM) | 0.56 ng/mL (≈ 2.1 nM) |  |  |  |  | 
12 | C1CCN(C2CCC3(CC2)OOC2(O3)C3CC4CC(C3)CC2C4)CC1 (stereo not shown) [OZ159] | 34% | 98% | 31% | 6.7 days | 9.0 days | 6.7 days | 19% | 19% |  |  | 0.70 ng/mL (≈ 2.01 nM) | 0.94 ng/mL (≈ 2.71 nM) |  |  |  |  | 
13 | O=[N+]([O-])c1ccc(N2CCC3(CC2)OOC2(O3)C3CC4CC(C3)CC2C4)cc1 (stereo not shown) [OZ151] | 71% | 99.63% | 71% | 7.3 days | 11.0 days | 7.3 days | 19% | 19% |  |  | 3.8 ng/mL (≈ 9.83 nM) | 4.0 ng/mL (≈ 10.4 nM) |  |  |  |  | 
14 | CC(C)(C)ON=C1CCC2(CC1)OOC1(O2)C2CC3CC(C2)CC1C3 (stereo not shown) [OZ28] | 93% | 99.97% |  | 7.3 days | 12.3 days |  | 87% | 81% |  |  | 2.1 ng/mL (≈ 6.01 nM) | 2.5 ng/mL (≈ 7.15 nM) |  |  |  |  | 
15 | NC[C@H]1CC[C@]2(CC1)OOC1(O2)C2CC3CC(C2)CC1C3 (stereo partly shown) [OZ163] |  | 100% | 99.94% |  |  | 9.0 days | 80% |  |  |  | 0.2/0.2 ng/ml | 0.2/0.2 ng/ml | 99.90% |  | 8.0 days | 9.7 days | 
16 | O=C(NN=C1CCC2(CC1)OOC1(O2)C2CC3CC(C2)CC1C3)Nc1ccccc1 (stereo not shown) [OZ30] | 0% | 86% |  | 5.3 days | 9.0 days |  | 12% | 16% |  |  | 0.65 ng/mL (≈ 1.58 nM) | 1.3 ng/mL (≈ 3.16 nM) |  |  |  |  | 
17 | c1ccc(CON=C2CCC3(CC2)OOC2(O3)C3CC4CC(C3)CC2C4)cc1 (stereo not shown) [OZ19] | 98.3% | 99.98% | 56% | 7.5 days | 13.4 days | 6.0 days | 74% | 77% |  |  | 1.3 ng/mL (≈ 3.39 nM) | 2.7 ng/mL (≈ 7.04 nM) |  |  |  |  | 

Reference: US6906205B2, “Spiro and dispiro 1,2,4-trioxolane antimalarials” (Medicines for Malaria Venture MMV, priority 2002, dated 2005)
